IC50 and inhibition data for 41 compounds are collected here from ChEMBL document CHEMBL1134193, “Initial structure-activity relationship of a novel class of nonpeptidyl GnRH receptor antagonists: 2-arylindoles” (Bioorg Med Chem Lett, 2001).

In general, IC50 refers to the concentration at which inhibition is half-maximal. A low value points to inhibition by little substance. One may read the inhibition as the change of the read-out against control, counted positive when it falls. Higher therefore signals strong suppression.

The target in test [1] is T1, Gonadotropin-releasing hormone receptor (Rattus norvegicus, UniProt P30969).
T1 sequence (P30969 whole entry): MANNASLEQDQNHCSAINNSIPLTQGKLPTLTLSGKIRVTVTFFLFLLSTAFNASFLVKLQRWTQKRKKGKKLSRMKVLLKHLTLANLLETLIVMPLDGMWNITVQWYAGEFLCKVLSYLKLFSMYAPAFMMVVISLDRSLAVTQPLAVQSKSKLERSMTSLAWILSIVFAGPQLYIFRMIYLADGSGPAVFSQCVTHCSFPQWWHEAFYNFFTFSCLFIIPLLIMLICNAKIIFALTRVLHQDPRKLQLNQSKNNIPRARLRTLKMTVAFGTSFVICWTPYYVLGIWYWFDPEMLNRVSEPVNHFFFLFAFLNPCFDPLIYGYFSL
Briefly: Ability to displace [125I]- - radio-labeled buserelin from rat Gonadotropin-releasing hormone receptor.

Test [2] deals with T2, Gonadotropin-releasing hormone receptor (Rattus norvegicus) (UniProt P30969).
T2 sequence (whole entry): T1 sequence (P30969 whole entry)
Briefly: Percent inhibition of displacement of [125I]- - radio-labeled buserelin from rat Gonadotropin-releasing hormone receptor. The conditions noted are these: concentration not given here. In general terms: In a radioligand displacement assay an active substance lowers the binding of a labelled ligand.

In turn, `COc1ccc(-c2[nH]c3ccccc3c2CCNCc2ccc(O)cc2)cc1OC` registered an IC50 in test [1] of 20000 nM.

In test [1], `COc1ccc(-c2[nH]c3ccccc3c2CCNCCCCCCc2ccc(O)cc2)cc1OC` registered an IC50 of 10000 nM.

`Cc1cc(C)cc(-c2[nH]c3ccccc3c2CCNCCCCc2ccc(O)cc2)c1` gave an IC50 in test [1] of 50 nM.

In turn, `COc1ccc(-c2[nH]c3ccccc3c2CCNCCCCc2ccc([N+](=O)[O-])cc2)cc1OC` had an IC50 in test [1] of 5000 nM.

On to `COc1ccc(-c2[nH]c3ccccc3c2CCNC(=O)CCCc2ccc(OCc3ccccc3)cc2)cc1OC`, for which the inhibition in test [2] was 0%.

For `Cc1cccc(-c2[nH]c3ccccc3c2CCNCCCCc2ccc(O)cc2)c1`, the IC50 in test [1] worked out at 200 nM.

Turning to `Cn1ccc2cc(-c3[nH]c4ccccc4c3CCNCCCCc3ccc(O)cc3)ccc21`, the IC50 in test [1] amounted to 2800 nM. Compared with the last compound, the IC50 is about 14-fold higher.

In the case of `Cc1cc(C)cc(-c2[nH]c3ccccc3c2CCNCCCc2ccc(O)cc2)c1`, the IC50 in test [1] is 250 nM.

In test [1], `Cc1cc(C)cc(-c2[nH]c3ccccc3c2CCNCc2ccc(O)cc2)c1` showed a 50% inhibitory concentration (IC50) of 9000 nM.

As to `COc1ccc(-c2[nH]c3ccccc3c2CCNCCCc2ccc(O)cc2)cc1OC`, in test [1], the IC50 is 6000 nM.

Take `Cc1cc(C)cc(-c2[nH]c3ccccc3c2CCNCCc2ccc(O)cc2)c1`: the IC50 in test [1] stood at 200 nM.

As for `Cc1cccc(-c2[nH]c3ccccc3c2CCNCCCCc2ccc(O)cc2)c1C`, the IC50 in test [1] came to 900 nM. This IC50 lies about 4.5-fold higher than the previous one.

The compound `Oc1ccc(CCCCNCCc2c(-c3cc(Cl)cc(Cl)c3)[nH]c3ccccc23)cc1` gave an IC50 in test [1] of 170 nM.

Turning to `COc1ccc(-c2[nH]c3ccccc3c2CCNC[C@H](O)COc2ccc(O)cc2)cc1OC`, the IC50 in test [1] stood at 3000 nM. This IC50 is about 18-fold higher than that of the compound before.

In the case of `Oc1ccc(CCCCNCCc2c(-c3cccc4ccccc34)[nH]c3ccccc23)cc1`, the IC50 in test [1] was found to be 130 nM.

On to `COc1ccc(-c2[nH]c3ccccc3c2CCNCCc2ccc(O)cc2)cc1OC`, for which the IC50 in test [1] amounted to 4000 nM.

On to `COc1ccc(-c2[nH]c3ccccc3c2CCNC(=O)CCCc2ccc(N)cc2)cc1OC`, for which the IC50 in test [1] is 30000 nM.

In test [1], `COc1cc(OC)cc(-c2[nH]c3ccccc3c2CCNCCCCc2ccc(O)cc2)c1` came in with an IC50 of 700 nM.

In test [1], `COc1ccc(-c2[nH]c3ccccc3c2CCNC[C@@H](O)COc2ccc(O)cc2)cc1OC` returned an IC50 of 3000 nM.

Compound `Oc1ccc(CCCCNCCc2c(-c3csc4ccccc34)[nH]c3ccccc23)cc1` showed an IC50 in test [1] of 300 nM.

For the compound `Oc1ccc(CCCCNCCc2c(-c3ccccc3)[nH]c3ccccc23)cc1`, the IC50 in test [1] amounted to 1300 nM.

`Oc1ccc(CCCCNCCc2c(-c3cccc4cnccc34)[nH]c3ccccc23)cc1` gave an IC50 in test [1] of 1900 nM.

In the case of `COc1ccc(-c2[nH]c3ccccc3c2CCNC[C@H](O)CCc2ccc(O)cc2)cc1OC`, in test [1], the IC50 worked out at 2000 nM.

`Cc1cc(C)cc(-c2[nH]c3ccccc3c2CCNCCCCCc2ccc(O)cc2)c1`: the IC50 in test [1] was found to be 200 nM.

In test [1], `Oc1ccc(CCCCNCCc2c(-c3cc4ccccc4s3)[nH]c3ccccc23)cc1` gave an IC50 of 2500 nM.

Turning to `Cc1cc(C)cc(-c2[nH]c3ccccc3c2CCNCCCCCCc2ccc(O)cc2)c1`, the IC50 in test [1] worked out at 600 nM.

On to `CCc1cccc(-c2[nH]c3ccccc3c2CCNCCCCc2ccc(O)cc2)c1`, for which the IC50 in test [1] was determined as 900 nM. Compared with the last compound, the IC50 is about 1.5-fold higher.

In test [1], `Cc1ccccc1-c1[nH]c2ccccc2c1CCNCCCCc1ccc(O)cc1` came in with an IC50 of 500 nM. This IC50 is about 1.8-fold lower than that of the compound before.

Turning to `COc1cccc(-c2[nH]c3ccccc3c2CCNCCCCc2ccc(O)cc2)c1`, in test [1], the IC50 was found to be 600 nM.

Compound `Oc1ccc(CCCCNCCc2c(-c3cc(C(F)(F)F)cc(C(F)(F)F)c3)[nH]c3ccccc23)cc1` registered an IC50 in test [1] of 1500 nM.

On to `COc1ccc(-c2[nH]c3ccccc3c2CCNCCCCCc2ccc(O)cc2)cc1OC`, for which the IC50 in test [1] turned out to be 2000 nM.

The compound `COc1ccc(-c2[nH]c3ccccc3c2CCNCCCCc2ccc(N)cc2)cc1OC` had an IC50 in test [1] of 10000 nM.

`COc1ccc(-c2[nH]c3ccccc3c2CCNC(=O)CCCc2ccc(O)cc2)cc1OC`: the IC50 in test [1] was more than 30000 nM.

`COc1ccc(-c2[nH]c3ccccc3c2CCNCCCCc2ccc(O)cc2)cc1OC` returned an IC50 in test [1] of 2000 nM.

The compound `Cc1ccc(-c2[nH]c3ccccc3c2CCNCCCCc2ccc(O)cc2)cc1` came in with an IC50 in test [1] of 9000 nM.

`Oc1ccc(CCCCNCCc2c(-c3ccc(F)cc3)[nH]c3ccccc23)cc1` came in with an IC50 in test [1] of 11000 nM.

On to `Cc1cccc(C)c1-c1[nH]c2ccccc2c1CCNCCCCc1ccc(O)cc1`, for which, in test [1], the IC50 worked out at 1700 nM.

On to `Oc1ccc(CCCCNCCc2c(-c3ccc4ccccc4c3)[nH]c3ccccc23)cc1`, for which the IC50 in test [1] stood at 2500 nM.

The compound `COc1ccc(-c2[nH]c3ccccc3c2CCNCCCCc2ccc(OCc3ccccc3)cc2)cc1OC` registered an IC50 in test [1] of 30000 nM.

Turning to `Cc1ccc(C)c(-c2[nH]c3ccccc3c2CCNCCCCc2ccc(O)cc2)c1`, the IC50 in test [1] is 400 nM.

In test [1], `COc1ccc(-c2[nH]c3ccccc3c2CCNC(=O)CCCc2ccc([N+](=O)[O-])cc2)cc1OC` displayed an IC50 of more than 30000 nM.
